Results published in ChEMBL document CHEMBL3351925, “The Oxeatamides: nitrogenous spongian diterpenes from the New Zealand marine sponge Darwinella oxeata” (J Nat Prod, 2014).

Assay: Cytotoxicity against human HL60 cells after 48 hrs by MTT assay
Type: functional, cell-based
Conditions: HL-60, 48 h

Structure (SMILES) | IC50 [µM]
C[C@@H](C(=O)O)c1c([C@@]2(C)CCCC(C)(C)C2)ccc2c1CN(CC(=O)O)C2=O | > 10
C[C@@H](C(=O)O)c1c([C@@]2(C)CCCC(C)(C)C2)ccc2c1C(=O)N(CC(=O)O)C2 | > 10
C[C@@H](C(=O)O)c1c([C@@]2(C)CCCC(C)(C)C2)ccc2c1CN(CCc1cnc[nH]1)C2=O | > 10
C[C@@H](C(=O)O)c1c([C@@]2(C)CCCC(C)(C)C2)ccc2c1CN(CCN)C2=O | > 10
CC(C)CN1Cc2c(ccc([C@@]3(C)CCCC(C)(C)C3)c2[C@@H](C)C(=O)O)C1=O | > 10
C[C@@H](C(=O)O)c1c([C@@]2(C)CCCC(C)(C)C2)ccc2c1CN(CCc1ccccc1)C2=O | > 10
CCC(C)CN1Cc2c(ccc([C@@]3(C)CCCC(C)(C)C3)c2[C@@H](C)C(=O)O)C1=O (some centres undefined) | > 10
CC(C)CCN1Cc2c(ccc([C@@]3(C)CCCC(C)(C)C3)c2[C@@H](C)C(=O)O)C1=O | > 10
COC(=O)CN1Cc2c(ccc([C@@]3(C)CCCC(C)(C)C3)c2[C@@H](C)C(=O)O)C1=O | > 10
